# Experiments:
# [1] = Study on the crystal form of salt of compound (crystallization with counter ion acids); format: physicochemical; settings: solvent Isopropyl ether, base: acid=1:1.2, 25° C.
# Method: To identify which counter ion acids can form crystal form of salt of compound by selecting different counter ion acids according to suitable crystallization methods.
# 1 mL of the solution was taken into a glass bottle, and different counter ion acids (molar reaction ratio of base: acid=1:1.2) were added, and then the glass bottle was opened at room temperature to volatile solvent. The amorphous or oily was pulped with 200 μL of ethyl acetate.
# 1) 10 mg of crystal form B of free base was weighed, and 200 μL of methanol solvent was added, and counter ion acid (molar reaction ratio of base: acid=1:1.2) was added respectively at 25° C.
# 2) 85 mg of crystal form B of free base was weighed, and ethyl acetate was added to produce a clear solution. Different counter ion acids (molar reaction ratio of base: acid=1:1.2) were added respectively at 25° C.
# [2] = Pharmacokinetic assay in Balb/c mice (plasma and brain tissue); format: in vivo; settings: p.o. 5 mg/kg
# Method: (III). Pharmacokinetic Assay in Balb/c Mice
# Balb/c mice were used as test animals. The pharmacokinetic behavior in mouse body (plasma and brain tissue) of the compounds of Examples of the present invention was studied at an oral administration dose of 5 mg/kg.
# Male Balb/c mice (12 mice per group), purchased from Shanghai Jiesijie Laboratory Animal Co., LTD, with Certificate No.: SCXK (Shanghai) 2013-0006 N0.311620400001794.
# The test compound was dissolved in 0.5% CMC-Na (1% Tween80) by sonication to formulate a clear solution or homogeneous suspension.
# After an overnight fast, male Balb/c mice (12 mice per group) were administered p.o. with the test compound at an administration dose of 5 mg/kg and an administration volume of 10 mL/kg.
# 0.2 mL of blood was taken from the heart of the mouse before administration and at 1, 2, 4, 8 and 24 hours after administration, and the mice were sacrificed with CO2. The samples were stored in EDTA-K2 tubes, and centrifuged for 6 minutes at 4° C., 6000 rpm to separate the plasma. The plasma samples were stored at −80° C. Whole brain tissue was taken out, weighed, placed in a 2 mL centrifuge tube, and stored at −80° C.
# 1) 160 μL of acetonitrile was added to 40 μL of the plasma sample for precipitation, and then the mixture was centrifuged for 5 to 20 minutes at 3500×g.
# 2) 90 μL of acetonitrile containing internal standard (100 ng/mL) was added to 30 μL of the plasma and brain homogenate sample for precipitation, and then the mixture was centrifuged for 8 minutes at 13000 rpm.
# 3) 70 μL of water was added to 70 μL of the treated supernatant and mixed by vortex for 10 minutes. 20 μL of the supernatant was taken to analyze the concentration of the test compound by LC/MS/MS. LC/MS/MS analytical instrument: AB Sciex API 4000 Qtrap.
# • Liquid chromatography condition: Shimadzu LC-20AD pump • Chromatographic column: Agilent ZORBAX XDB-C18 (50×2.1 mm, […]); Mobile phase: Eluent A was 0.1% formic acid in water, and Eluent B was acetonitrile • Flow rate: 0.4 mL/min • Elution time: 0-4.0 minutes, the eluent is as follows:
# The main parameters of pharmacokinetics were calculated by WinNonlin 6.1.
Compound,Phenomenon [1],Peak time tmax ([2]; Brain) [h],Peak time tmax ([2]; Plasma) [h]
O=C(O)/C=C/C(=O)O [0.25M fumaric acid in ethanol],Turbid,–,–
"O=C(NC1CC(CCN2CCN(c3cccc(Cl)c3Cl)CC2)C1)C1(O)CC1 (stereo not shown) [Example 6, N-(3-(2-(4-(2,3-Dichlorophenyl)piperazin-1-yl)ethyl)cyclobutyl)-1-hydroxycyclopropane-1-carboxamide]",–,1,0.5
"O=C(N[C@H]1C[C@H](CCN2CCN(c3cccc(Cl)c3Cl)CC2)C1)C1(O)CC1 [Example 6A, N-(Trans-3-(2-(4-(2,3-dichlorophenyl)piperazin-1-yl)ethyl)cyclobutyl)-1-hydroxycyclopropane-1-carboxamide]",–,1,0.5
"O=C(N[C@H]1C[C@@H](CCN2CCN(c3cccc(Cl)c3Cl)CC2)C1)C1(O)CC1 [Example 6B, N-(Cis-3-(2-(4-(2,3-dichlorophenyl)piperazin-1-yl)ethyl)cyclobutyl)-1-hydroxycyclopropane-1-carboxamide]",–,1,0.5

# Second part, the compound after the results:
Phenomenon [1],Peak time tmax ([2]; Brain) [h],Peak time tmax ([2]; Plasma) [h],Compound
–,1,0.5,"O=C(NC1CC(CCN2CCN(c3cccc(Cl)c3Cl)CC2)C1)c1nccs1 (stereo not shown) [Example 7, N-(3-(2-(4-(2,3-Dichlorophenyl)piperazin-1-yl)ethyl)cyclobutyl)thiazole-2-carboxamide]"
–,1,1,"O=C(N[C@H]1C[C@H](CCN2CCN(c3cccc(Cl)c3Cl)CC2)C1)c1nccs1 [Example 7A, N-(Trans-3-(2-(4-(2,3-dichlorophenyl)piperazin-1-yl)ethyl)cyclobutyl)thiazole-2-carboxamide]"
–,1,0.5,"O=C(NC1CC(CCN2CCN(c3cccc(Cl)c3Cl)CC2)C1)c1ncco1 (stereo not shown) [Example 12, N-(3-(2-(4-(2,3-Dichlorophenyl)piperazin-1-yl)ethyl)cyclobutyl)oxazole-2-carboxamide]"
